{"source": "paper PMC8795149", "about": "“Characterization of a novel non-steroidal glucocorticoid receptor agonist optimized for topical treatment” (Scientific Reports, 2022)", "key": {"[1]": {"system": "TPA-induced skin inflammation", "experiment": "TPA study in mice, CP applied on the non-inflamed ear", "assay_type": "in vivo, mouse", "settings": "CP applied topically on the non-inflamed ear, tested dose range 0.03–3 µg/ear", "protocol": "Figure S6. Effect of topically applied CP on TPA induced ear biopsy weight in mice (upper panel). Treatment scheme can be seen in the lower panel. Ear oedema was induced by TPA on the left ear on day 1, 3, 5, 8 and 10 and CP was topically administered daily on either left or right ear on day 8 to 11. The left ear biopsy weight was measured on day 11. Significant effect was seen also when CP was administered on the right ear at the 2 highest doses, indicating contribution to the local effect, by systemic exposure"}, "[2]": {"experiment": "Hepatocyte stability (human)", "assay_type": "in vitro ADME", "settings": "predicted hepatic clearance, well stirred model", "protocol": "(§1) Compounds (1.0 µM) were incubated in duplicates with rat, dog, minipig or human hepatocytes (1.0 million cells/mL) in phosphate buffer, in 96-well plates for 120 min (37 °C). Reactions were stopped by addition of cold acetonitrile, at 0, 10, 30, 60, and 120 min, and dispensed into cold acetonitrile to stop the reactions. Plates were centrifuged for 30 min and samples were analysed using liquid chromatography coupled to a time-of-flight mass spectrometer. Compound depletion over time was used to estimate the elimination rate constant, from which the apparent intrinsic clearance (CLapp), and half-life (t½), were calculated."}, "[3]": {"experiment": "Stability in whole blood (minipig)", "assay_type": "in vitro ADME", "settings": "0.1 µM, 37 °C", "protocol": "(§2) Compounds were incubated in diluted fresh rat, dog, minipig or human whole blood (heparin stabilized, 50% blood and 50% phosphate buffer with 1% bovine serum albumin) for 120 min at 0.1 µM, at 37 °C and the half-lives were determined. Samples were taken at 0, 15, 30, 60 and 120 min, and reactions were terminated by addition of acetonitrile containing analytical internal standard (IS). Test compound depletion was determined using time-of-flight mass spectrometry in positive ion mode (TOF–MS; AB Sciex API5600). Elimination rate constants (k) were calculated from peak areas and the half-lives was determined (t½ = ln2/k)."}, "[4]": {"experiment": "Stability in whole blood (dog)", "assay_type": "in vitro ADME", "settings": "0.1 µM, 37 °C", "protocol": "as §2"}, "[5]": {"experiment": "Stability in whole blood (rat)", "assay_type": "in vitro ADME", "settings": "0.1 µM, 37 °C", "protocol": "as §2"}, "[6]": {"experiment": "Hepatocyte stability (rat)", "assay_type": "in vitro ADME", "settings": "predicted hepatic clearance, well stirred model", "protocol": "as §1"}, "[7]": {"experiment": "Compound concentration in dermis, human skin explants", "assay_type": "in vitro ADME", "settings": "24 h, propylene carbonate", "protocol": "NativeSkin models (NS002) were purchased from Genoskin, France. Human skin samples from abdominal reduction surgery were obtained by Genoskin from donors upon written informed consent. Full ethical approval for the study protocol was obtained from the French ethical research committee (Comité de Protection des Personnes), and authorization was given by the French Ministry of Research. The study was conducted according to the Declaration of Helsinki. 8 mm punch biopsies were excised and embedded in a fibrin-based matrix in transwells and a silicone ring was firmly attached to the surface covering the outer edge of the skin biopsy to prevent lateral diffusion of topically applied formulations. […]\nThe concentrations of the compounds in dermis were determined from skin biopsies from the human skin explants. […] After homogenization, the samples were diluted, centrifuged and precipitated with acetonitrile containing internal standard (IS), and the compounds were thereafter quantified by means of liquid chromatography-tandem mass spectrometry (LC-MS/MS) using an AB Sciex 5500 or 6500 QTRAP. Calibration curves were prepared by spiking the analytes in blank homogenate, and a generic IS were used in quantification. The dermis micro molar concentrations were calculated assuming 1 gram of skin tissue equal to 1 mL."}, "[8]": {"biological_target": "T1, human Mineralocorticoid Receptor (Homo sapiens, UniProt P08235)", "T1 construct": "host or cells: HEK293 (DSMZ ACC 305)", "T1 sequence (P08235 726-964 limits assumed)": "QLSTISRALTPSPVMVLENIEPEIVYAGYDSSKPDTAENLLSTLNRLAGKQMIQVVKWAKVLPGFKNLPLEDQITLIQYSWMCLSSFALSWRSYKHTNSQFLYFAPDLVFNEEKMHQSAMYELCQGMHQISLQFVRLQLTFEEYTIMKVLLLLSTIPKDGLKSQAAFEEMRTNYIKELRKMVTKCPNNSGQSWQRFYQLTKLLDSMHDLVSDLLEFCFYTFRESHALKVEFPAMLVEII", "experiment": "MR antagonist assay, MR reporter assay", "assay_type": "cell-based", "protocol": "Assays were performed at Indigo Biosciences according to standard protocols. In brief, MR-luciferase reporter cells were incubated with medium containing charcoal-stripped fetal bovine serum and incubated with test and reference compounds for 24 h before measuring luminescence. Data were fitted by the means of four parameter logistic regression.\nLEO 134310 and LEO 134988 were tested in the human Mineralocorticoid Receptor in cellular GAL4 reporter gene assays. All assays were done in HEK293 cells (DSMZ ACC 305). The plasmids used in Phenex’ GAL4 assay system are derivatives of Stratagene’s M2H plasmids: the reporter plasmid pFR-Luc (contains a synthetic promoter with five tandem repeats of the yeast GAL4 binding sites that control expression of the Photinus pyralis (American firefly) luciferase gene), and pCMV-BD (for fusions of nuclear receptor ligand binding domains to the DNA-binding domain of the yeast protein GAL4). In order to improve experimental accuracy, a second reporter - Renilla reniformis luciferase, driven by a constitutive promoter - was included as internal control. Using the control reporter (pRL-CMV) allows correcting for variations in experimental handling e.g. transfection efficacy, cell viability, pipetting errors, cell lysis efficiency and assay efficiency. The compounds were tested in 9 concentrations in triplicates."}, "[9]": {"experiment": "Stability in whole blood (human)", "assay_type": "in vitro ADME", "settings": "0.1 µM, 37 °C", "protocol": "Anonymized human blood samples were obtained from healthy volunteer donors upon informed written consent and in accordance with national legislation.\nas §2"}, "[10]": {"experiment": "Predicted clearance and half-life in man by allometric scaling of clearance in dogs", "parameters": "species or system human", "description": "To evaluate allometric scaling, actual clearance in dog and man were extracted from the literature for 6 ester drugs[27]–[38]."}}, "note": "Values joined by “and” are separate entries in the source; they are usually repeats but may differ in a detail not shown here. Equal entries are not always repeated.", "data": [{"smiles": "CCC(=O)O[C@]1(C(=O)CCl)[C@@H](C)C[C@H]2[C@@H]3CCC4=CC(=O)C=C[C@]4(C)[C@@]3(F)[C@@H](O)C[C@@]21C", "note": "[CP, Clobetasol Propionate]", "values": [{"measurement": "Dose from which significant anti-inflammatory effect due to systemic exposure was seen", "setting": "[1]", "result": "≥ 1", "unit": "µg/ear"}]}, {"smiles": "C[C@H](NC(=O)[C@H]1CCCO1)[C@H](Oc1ccc(C(=O)O[C@H]2CCCN(C(=O)[C@H]3COC(=O)C3)C2)cc1)c1ccc(C2CC2)cc1", "note": "[LEO 134310]", "values": [{"measurement": "In vitro (hepatocytes) CLH", "setting": "[2]", "result": "> 18 (n = 1) mL/min/kg"}, {"measurement": "In vitro (blood) half-life", "setting": "[3]", "result": "3.8 (n = 1) min"}, {"measurement": "In vitro (blood) half-life", "setting": "[4]", "result": "3.3 ± 2.1 (n = 5) min"}, {"measurement": "In vitro (blood) half-life", "setting": "[5]", "result": "2.2 (2.1, 2.2) (n = 2) min"}, {"measurement": "In vitro (hepatocytes) CLH", "setting": "[6]", "result": "57 (n = 1) mL/min/kg"}, {"measurement": "Higher dose needed to achieve similar dermis concentrations compared to BMV", "setting": "[7]", "result": 3, "unit": "fold"}, {"measurement": "Higher dose needed to achieve similar dermis concentrations compared to CP", "setting": "[7]", "result": 7, "unit": "fold"}, {"measurement": "Antagonist activity on MR", "setting": "[8]", "result": "no antagonist activity on MR"}, {"measurement": "In vitro (blood) half-life", "setting": "[9]", "result": "6 min and 4.4 ± 2.2 (n = 4) min"}, {"measurement": "Predicted clearance in man", "setting": "[10]; allometric scaling of clearance in dogs, scaling factor 0.75", "result": 300, "unit": "mL/min/kg"}, {"measurement": "Predicted half-life in man", "setting": "[10]; corresponding to predicted clearance", "result": "< 5", "unit": "min"}]}]}
